Measured values published in PMC4608554 (Bioorganic & medicinal chemistry, 2015).
Where “and” joins values, the source holds several entries; their conditions need not be identical. Equal entries are not always repeated. Entries after “also recorded” stand apart in the source; their conditions may differ. Where two headings read alike, the source gives them in different places. Values belong to the molecule of their own block, whether it stands above or below them.

How the values were obtained:
[1] = test system: non-iron-overloaded, bile duct-cannulated rats; settings: cited from earlier work
rats [2] = settings: cited from earlier work
[3] = test system: iron-overloaded Cebus apella monkeys; settings: po, cited from earlier work
[4] = 2:1 complex with Fe(III); cited from earlier work
patients = settings: cited from earlier work
[5] = rat liver, sc 300 µmol/kg, cited from earlier work; for fraction of parent polyether cleaved to 2 (from 5) or 3 (from 6): 2 h
[6] = even when administered b.i.d.; cited from earlier work
[7] = Tissue distribution/metabolism of chelators in rats; assay type: in vivo, rat (male Sprague-Dawley); settings: for concentration in kidney: rat kidney; for presence in heart: later time points (2-8 h) after 11 sc 300 µmol/kg
rats [8] = settings: rat, cited from earlier work
[9] = test system: non-iron-overloaded, bile duct-cannulated rats; experiment: Chelator-induced iron clearance; assay type: in vivo; settings: po, 300 µmol/kg
male Sprague-Dawley rats = experiment: 10-day toxicity trial of 11 in rats; assay type: in vivo, rat; settings: 384 µmol/kg/day
[10] = test system: iron-overloaded Cebus apella monkeys; experiment: Chelator-induced iron clearance; assay type: in vivo; settings: 75 µmol/kg, same animals po and sc
[11] = bile duct-cannulated rats, po, 150 µmol/kg
[12] = rat liver, 8 h after 8 sc 300 µmol/kg
[13] = rat plasma, 8 h after 8 sc 300 µmol/kg
[14] = rat heart, 0.5 h after 11 sc 300 µmol/kg
[15] = rat pancreas, 0.5 h after 11 sc 300 µmol/kg
[16] = rat plasma, 4 h after 11 sc 300 µmol/kg
[17] = rat liver, 0.5 h after 11 sc 300 µmol/kg
[18] = rat liver, 1 h after 11 sc 300 µmol/kg
[19] = rat heart, 1 h after 11 sc 300 µmol/kg
[20] = rat liver, 8 h after 11 sc 300 µmol/kg
[21] = rat pancreas, 1 h after 11 sc 300 µmol/kg

Compound: CCCCOc1ccc(C2=N[C@@H](C(=O)O)CS2)c(O)c1 [(S)-2-(4-butoxy-2-hydroxyphenyl)-4,5-dihydro-4-thiazolecarboxylic acid]
time to deaths ([1]; 4'-butoxy analogue of 2): ≤ 24 h

Compound: C[C@]1(C(=O)O)CSC(c2ncccc2O)=N1 [compound 1, (S)-4,5-dihydro-2-(3-hydroxy-2-pyridinyl)-4-methyl-4-thiazolecarboxylic acid]
renal toxicity in rats (rats [2]): unacceptable renal toxicity | Primate ICE (%) ([3]; 150 µmol/kg, historical, ref 41 (1), ref 53 (2)): 16.1 ± 8.5% | Rodent ICE (%) ([1]; rat, po, 150 µmol/kg): 5.5 ± 3.2% | cumulative formation constant [4]: 4 × 10^29

Compound: C[C@]1(C(=O)O)CSC(c2ccc(O)cc2O)=N1 [compound 2, (S)-2-(2,4-dihydroxyphenyl)-4,5-dihydro-4-methyl-4-thiazolecarboxylic acid]
tolerability in patients (patients; 5, 10, or 15 mg/kg/day once daily (s.i.d) for up to 12 weeks): well tolerated | renal toxicity in patients (increases in BUN and SCr) (patients; b.i.d. 12.5 mg/kg (25 mg/kg/d), three patients after 4-5 weeks): unacceptable renal toxicity

Compound: COc1ccc(C2=N[C@@](C)(C(=O)O)CS2)c(O)c1 [compound 4, (S)-4,5-dihydro-2-(2-hydroxy-4-methoxyphenyl)-4-methyl-4-thiazolecarboxylic acid]
fraction of parent demethylated to 2 ([5]; 2 h post drug): about 30%

Compound: COCCOCCOCCOc1ccc(C2=N[C@@](C)(C(=O)O)CS2)c(O)c1 [compound 5, (S)-4,5-dihydro-2-[2-hydroxy-4-(3,6,9-trioxadecyloxy)phenyl]-4-methyl-4-thiazolecarboxylic acid]
fraction of parent polyether cleaved to 2 (from 5) or 3 (from 6) [5]: 2% | renal toxicity [6]: no renal toxicity

Compound: COCCOCCOCCOc1cccc(C2=N[C@@](C)(C(=O)O)CS2)c1O [compound 6, (S)-4,5-dihydro-2-[2-hydroxy-3-(3,6,9-trioxadecyloxy)phenyl]-4-methyl-4-thiazolecarboxylic acid]
fraction of parent polyether cleaved to 2 (from 5) or 3 (from 6) [5]: 2.6% | ICE [1, 11]: 18.7 ± 2.9% | iron decorporated [1, 11]: 0.782 ± 0.121 mg/kg | quantity of iron excreted ([1]; bile duct-cannulated rats, po, 300 µmol/kg): 0.887 ± 0.367 mg/kg | renal toxicity [6]: no renal toxicity

cleavage of the terminal methyl of 7 to alcohol 8 ([7]; rat tissues, 7 sc 300 µmol/kg): did occur | cleavage of 7 at the 4'-(HO) to 2 ([7]; rats, 7 sc 300 µmol/kg): does not sustain metabolic cleavage
Compound: COCCOCCOc1ccc(C2=N[C@@](C)(C(=O)O)CS2)c(O)c1 [compound 7, (S)-4,5-dihydro-2-[2-hydroxy-4-(3,6-dioxaheptyloxy)phenyl]-4-methyl-4-thiazolecarboxylic acid]
Primate ICE (%) ([3]; 75 µmol/kg, as monosodium salt): 28.7 ± 12.4% | Primate ICE (%) ([3]; 75 µmol/kg, in capsules): ~ 26% and 26.3 ± 9.9% | histopathology (rats [8]; extensive tissues): no drug-related abnormalities were identified | urinary Kim-1 excretion (rats [8]; up to 28 d): did not elicit any increases

share of the drug (parent + metabolite) ([7]; rat liver, 0.5 h after 8 sc 300 µmol/kg): 53% | presence in liver [7, 12]: very little | share of total drug concentration ([7]; rat plasma, 0.5 h after 7 sc 300 µmol/kg): 5%
Compound: C[C@]1(C(=O)O)CSC(c2ccc(OCCOCCO)cc2O)=N1 [compound 8, (S)-4,5-dihydro-2-[2-hydroxy-4-(5-hydroxy-3-oxapentyloxy)phenyl]-4-methyl-4-thiazolecarboxylic acid]
presence in plasma [7, 13]: Neither the parent 8 nor the metabolite 9 was found

share of the drug (parent + metabolite) ([7]; rat liver, 1 h after 8 sc 300 µmol/kg): 59% | presence in liver [7, 12]: no metabolite 9 remains | share of drug converted to / in the form of metabolite ([7]; rat plasma, 0.5 h after 8 sc 300 µmol/kg): ~60% | share of drug in the form of the metabolite ([7]; rat plasma, 2 h after 8 sc 300 µmol/kg): 88% | presence of carboxylic acid 9 in tissues after 7 ([7]; rat tissues, 7 sc 300 µmol/kg): not detected
Compound: C[C@]1(C(=O)O)CSC(c2ccc(OCCOCC(=O)O)cc2O)=N1 [compound 9, (S)-4,5-dihydro-2-[2-hydroxy-4-(4-carboxy-3-oxabutyloxy)phenyl]-4-methyl-4-thiazolecarboxylic acid]
presence in plasma [7, 13]: Neither the parent 8 nor the metabolite 9 was found

Compound: COCCCCCCOc1ccc(C2=N[C@@](C)(C(=O)O)CS2)c(O)c1 [compound 10, (S)-4,5-dihydro-2-[2-hydroxy-4-(6-methoxyhexyloxy)phenyl]-4-methyl-4-thiazolecarboxylic acid]
overt toxicity in rats ([9]; bile duct-cannulated rats): profoundly toxic; also recorded: very toxic | time of death of one of the animals post drug ([9]; bile duct-cannulated rats, remaining rodents euthanized at 24 h): ~ 22 h | time of peak drug-induced iron excretion post drug ([9]; rat): 6 h

Compound: C[C@]1(C(=O)O)CSC(c2ccc(OCCCCCCO)cc2O)=N1 [compound 11, (S)-4,5-dihydro-2-[2-hydroxy-4-(6-hydroxyhexyloxy)phenyl]-4-methyl-4-thiazolecarboxylic acid]
concentration in heart [7, 14]: 26 nmol/g wet weight | concentration in kidney ([7]; 0.5 h after 11 sc 300 µmol/kg): trace amounts | presence in liver ([7]; rat liver, any of the time points (0.5-8 h) after 11 sc 300 µmol/kg): not found | concentration in pancreas [7, 15]: < 5 nmol/g wet weight | share of the total (parent + metabolites) [7, 16]: no longer detectable | conversion of alcohol 11 to metabolites 12-14 ([7]; rats, 11 sc 300 µmol/kg): Significant conversion; also recorded: quickly converted; also recorded: very quickly converted | survival (male Sprague-Dawley rats; rat, po by gavage once daily for ten days): survived | histopathology (25 tissues/rat) (male Sprague-Dawley rats; rat, po once daily x 10 d): could not identify any drug-related abnormalities | overall toxicity (male Sprague-Dawley rats; rodents, once daily for 10 days): complete lack of toxicity | overt toxicity in rats ([9]; bile duct-cannulated rats): did not present with any overt toxicity; also recorded: did not display any overt toxicity; also recorded: did not elicit any signs of overt toxicity

presence in cardiac tissue ([7]; rat heart, any of the time points after 11 sc 300 µmol/kg): not found | concentration in kidney ([7]; 0.5 h after 11 sc 300 µmol/kg): found | concentration in kidney ([7]; 1 h after 11 sc 300 µmol/kg): found | presence in liver ([7]; rat liver, 2, 4, or 8 h after 11 sc 300 µmol/kg): not detected | share of the total drug (parent + metabolites) [7, 17]: 11% | share of the total drug (parent + metabolites) [7, 18]: 2% | presence in pancreas ([7]; rat pancreas, any of the time points after 11 sc 300 µmol/kg): not found | presence in plasma ([7]; rat plasma, 0.5-8 h after 11 sc 300 µmol/kg): None
Compound: C[C@]1(C(=O)O)CSC(c2ccc(OCCCCCC(=O)O)cc2O)=N1 [compound 12, (S)-4,5-dihydro-2-[2-hydroxy-4-(5-carboxypentyloxy)phenyl]-4-methyl-4-thiazolecarboxylic acid]

concentration in heart [7, 14]: ~ 46 nmol/g wet weight | concentration in heart [7, 19]: ~ 46 nmol/g wet weight | presence in heart ([7]; rat heart): not found | concentration in kidney ([7]; 0.5 h after 11 sc 300 µmol/kg): ~ 300 nmol/g wet weight | concentration in kidney ([7]; 1 h after 11 sc 300 µmol/kg): ~ 300 nmol/g wet weight | concentration in kidney ([7]; 8 h after 11 sc 300 µmol/kg): not detectable | share of the total drug (parent + metabolites) [7, 17]: 71% | share of the total drug (parent + metabolites) [7, 18]: 73% | share of the total drug (parent + metabolites) ([7]; rat liver, 2 h after 11 sc 300 µmol/kg): 66% | share of the total drug (parent + metabolites) ([7]; rat liver, 4 h after 11 sc 300 µmol/kg): 70% | presence in liver [7, 20]: no 13 remained | concentration in pancreas [7, 15]: 19 nmol/g wet weight | concentration in pancreas [7, 21]: 23 nmol/g wet weight | share of the total (parent + metabolites) ([7]; rat plasma, 0.5 h after 11 sc 300 µmol/kg): 62% | share of the total (parent + metabolites) [7, 16]: 50% | share of the total plasma drug concentration ([7]; rat plasma, 8 h after 11 sc 300 µmol/kg): 65%
Compound: C[C@]1(C(=O)O)CSC(c2ccc(OCCCC(=O)O)cc2O)=N1 [compound 13, (S)-4,5-dihydro-2-[2-hydroxy-4-(3-carboxypropyloxy)phenyl]-4-methyl-4-thiazolecarboxylic acid]
sc ICE vs po ICE in the primates (times higher) [10]: 3.4 times

concentration in heart [7, 14]: 17 nmol/g wet weight | concentration in heart [7, 19]: 23 nmol/g wet weight | presence in heart ([7]; rat heart): not found | concentration in kidney ([7]; 0.5 h after 11 sc 300 µmol/kg): 156 nmol/g wet weight | concentration in kidney ([7]; 1 h after 11 sc 300 µmol/kg): 201 nmol/g wet weight | concentration in kidney ([7]; 2 h after 11 sc 300 µmol/kg): 161 nmol/g wet weight | concentration in kidney ([7]; 8 h after 11 sc 300 µmol/kg): 5 nmol/g wet weight | share of the total drug (parent + metabolites) [7, 17]: 18% | share of the total drug (parent + metabolites) [7, 18]: 25% | presence in liver [7, 20]: trace amounts | concentration in pancreas [7, 15]: Trace amounts | concentration in pancreas [7, 21]: Trace amounts | concentration in pancreas ([7]; rat pancreas, 2 h after 11 sc 300 µmol/kg): Trace amounts | share of the total (parent + metabolites) [7, 16]: 50%
Compound: C[C@]1(C(=O)O)CSC(c2ccc(OCC(=O)O)cc2O)=N1 [compound 14, (S)-4,5-dihydro-2-[2-hydroxy-4-(carboxymethoxy)phenyl]-4-methyl-4-thiazolecarboxylic acid]
sc ICE vs po ICE in the primates (times higher) [10]: 5.3 times
